Experimental data: patent US8445492B2, “Method for inhibiting growth of cancer cells and cell telomere and diseases of cell proliferation by using heteroannelated anthraquinone derivative compounds” (National Defense Medical Center, priority 2008, dated 2013)

Tests used:
Format in all cases: cell-based
SF-268 = assay: NCI DTP in-vitro dose response, CNS Cancer
SF-295 = assay: NCI DTP in-vitro dose response, CNS Cancer
SF-539 = assay: NCI DTP in-vitro dose response, CNS Cancer
SNB-19 = assay: NCI DTP in-vitro dose response, CNS Cancer
SNB-75 = assay: NCI DTP in-vitro dose response, CNS Cancer
U251 = assay: NCI DTP in-vitro dose response, CNS Cancer
COLO 205 = assay: NCI DTP in-vitro dose response, Colon Cancer
HCC-2998 = assay: NCI DTP in-vitro dose response, Colon Cancer
HCT-116 = assay: NCI DTP in-vitro dose response, Colon Cancer
HCT-15 = assay: NCI DTP in-vitro dose response, Colon Cancer
HT29 = assay: NCI DTP in-vitro dose response, Colon Cancer
KM12 = assay: NCI DTP in-vitro dose response, Colon Cancer
SW-620 = assay: NCI DTP in-vitro dose response, Colon Cancer

Compound: CCc1nc2ccc3c(c2[nH]1)C(=O)c1ccccc1C3=O [TABLE 4-4]
- CC50 (SF-268): > 100 µM
- TGI (SF-268): >1.00E−4
- Percent Growth (SF-268; Log10 Concentration −4.0): 28%
- Percent Growth (SF-268; Log10 Concentration −5.0): 57%
- Percent Growth (SF-268; Log10 Concentration −6.0): 88%
- Percent Growth (SF-268; Log10 Concentration −7.0): 96%
- Percent Growth (SF-268; Log10 Concentration −8.0): 87%
- GI50 (SF-268; read-out: GI50): 17.7 µM
- CC50 (SF-295): > 100 µM
- TGI (SF-295): >1.00E−4
- Percent Growth (SF-295; Log10 Concentration −4.0): 9%
- Percent Growth (SF-295; Log10 Concentration −5.0): 35%
- Percent Growth (SF-295; Log10 Concentration −6.0): 69%
- Percent Growth (SF-295; Log10 Concentration −7.0): 90%
- Percent Growth (SF-295; Log10 Concentration −8.0): 88%
- GI50 (SF-295; read-out: GI50): 3.65 µM
- CC50 (SF-539): > 100 µM
- TGI (SF-539): >1.00E−4
- Percent Growth (SF-539; Log10 Concentration −4.0): 13%
- Percent Growth (SF-539; Log10 Concentration −5.0): 46%
- Percent Growth (SF-539; Log10 Concentration −6.0): 80%
- Percent Growth (SF-539; Log10 Concentration −7.0): 83%
- Percent Growth (SF-539; Log10 Concentration −8.0): 81%
- GI50 (SF-539; read-out: GI50): 7.46 µM
- CC50 (SNB-19): > 100 µM
- TGI (SNB-19): >1.00E−4
- Percent Growth (SNB-19; Log10 Concentration −4.0): 39%
- Percent Growth (SNB-19; Log10 Concentration −5.0): 61%
- Percent Growth (SNB-19; Log10 Concentration −6.0): 92%
- Percent Growth (SNB-19; Log10 Concentration −7.0): 94%
- Percent Growth (SNB-19; Log10 Concentration −8.0): 84%
- GI50 (SNB-19; read-out: GI50): 30.9 µM
- CC50 (SNB-75): > 100 µM
- TGI (SNB-75): >1.00E−4
- Percent Growth (SNB-75; Log10 Concentration −4.0): 17%
- Percent Growth (SNB-75; Log10 Concentration −5.0): 41%
- Percent Growth (SNB-75; Log10 Concentration −6.0): 49%
- Percent Growth (SNB-75; Log10 Concentration −7.0): 66%
- Percent Growth (SNB-75; Log10 Concentration −8.0): 66%
- GI50 (SNB-75; read-out: GI50): 0.872 µM
- CC50 (U251): > 100 µM
- TGI (U251): >1.00E−4
- Percent Growth (U251; Log10 Concentration −4.0): 27%
- Percent Growth (U251; Log10 Concentration −5.0): 49%
- Percent Growth (U251; Log10 Concentration −6.0): 84%
- Percent Growth (U251; Log10 Concentration −7.0): 96%
- Percent Growth (U251; Log10 Concentration −8.0): 94%
- GI50 (U251; read-out: GI50): 9.58 µM

Compound: O=C1c2ccccc2C(=O)c2c1ccc1nccnc21 [TABLE 5-3]
- CC50 (COLO 205): > 100 µM
- TGI (COLO 205): 2.84E−5
- Percent Growth (COLO 205; Log10 Concentration −4.0): −35%
- Percent Growth (COLO 205; Log10 Concentration −5.0): 29%
- Percent Growth (COLO 205; Log10 Concentration −6.0): 74%
- Percent Growth (COLO 205; Log10 Concentration −7.0): 86%
- Percent Growth (COLO 205; Log10 Concentration −8.0): 92%
- GI50 (COLO 205; read-out: GI50): 3.4 µM
- CC50 (HCC-2998): > 100 µM
- TGI (HCC-2998): 8.35E−5
- Percent Growth (HCC-2998; Log10 Concentration −4.0): −3%
- Percent Growth (HCC-2998; Log10 Concentration −5.0): 40%
- Percent Growth (HCC-2998; Log10 Concentration −6.0): 52%
- Percent Growth (HCC-2998; Log10 Concentration −7.0): 94%
- Percent Growth (HCC-2998; Log10 Concentration −8.0): 97%
- GI50 (HCC-2998; read-out: GI50): 1.4 µM
- CC50 (HCT-116): > 100 µM
- TGI (HCT-116): >1.00E−4
- Percent Growth (HCT-116; Log10 Concentration −4.0): 3%
- Percent Growth (HCT-116; Log10 Concentration −5.0): 55%
- Percent Growth (HCT-116; Log10 Concentration −6.0): 91%
- Percent Growth (HCT-116; Log10 Concentration −7.0): 99%
- Percent Growth (HCT-116; Log10 Concentration −8.0): 96%
- GI50 (HCT-116; read-out: GI50): 12.3 µM
- CC50 (HCT-15): > 100 µM
- TGI (HCT-15): 8.43E−5
- Percent Growth (HCT-15; Log10 Concentration −4.0): −3%
- Percent Growth (HCT-15; Log10 Concentration −5.0): 37%
- Percent Growth (HCT-15; Log10 Concentration −6.0): 77%
- Percent Growth (HCT-15; Log10 Concentration −7.0): 84%
- Percent Growth (HCT-15; Log10 Concentration −8.0): 88%
- GI50 (HCT-15; read-out: GI50): 4.63 µM
- CC50 (HT29): > 100 µM
- TGI (HT29): >1.00E−4
- Percent Growth (HT29; Log10 Concentration −4.0): 1%
- Percent Growth (HT29; Log10 Concentration −5.0): 46%
- Percent Growth (HT29; Log10 Concentration −6.0): 74%
- Percent Growth (HT29; Log10 Concentration −7.0): 95%
- Percent Growth (HT29; Log10 Concentration −8.0): 99%
- GI50 (HT29; read-out: GI50): 7.01 µM
- CC50 (KM12): > 100 µM
- TGI (KM12): 4.95E−5
- Percent Growth (KM12; Log10 Concentration −4.0): −18%
- Percent Growth (KM12; Log10 Concentration −5.0): 40%
- Percent Growth (KM12; Log10 Concentration −6.0): 76%
- Percent Growth (KM12; Log10 Concentration −7.0): 90%
- Percent Growth (KM12; Log10 Concentration −8.0): 89%
- GI50 (KM12; read-out: GI50): 5.26 µM
- CC50 (SW-620): > 100 µM
- TGI (SW-620): 3.08E−5
- Percent Growth (SW-620; Log10 Concentration −4.0): −26%
- Percent Growth (SW-620; Log10 Concentration −5.0): 25%
- Percent Growth (SW-620; Log10 Concentration −6.0): 58%
- Percent Growth (SW-620; Log10 Concentration −7.0): 87%
- Percent Growth (SW-620; Log10 Concentration −8.0): 94%
- GI50 (SW-620; read-out: GI50): 1.71 µM
